This data set can be described thus: Bioavailability of the rectal capsule versus i.v. administration (plasma AUC 0-72) in test subjects. As to conditions: for AUC at 72 h: human, plasma, iv, read-out: A U C 0 - 72. The data set is classed as in vivo.

“And” between values parts separate entries of the source, which are not always exact repeats. Identical values can stand only once. Like-named read-outs stand apart in the source and are kept apart here.

Consider `CCCC1C(=O)N2C(N(C)C)=Nc3ccc(C)cc3N2C1=O` (stereo not drawn) [Azapropazon, 3-Dimethyl-amino-7-methyl-1,2-(n-propyimaionyi)-1,2-dihydro-1,2.4-benzotriazin], for which the AUC at 72 h (geometric mean (geom.x) of 6 Probanden) was found to be 1060 µg·h/mL and the AUC at 72 h (mean (x) of 6 Probanden) amounted to 1080 µg·h/mL. The “A U C 0 - 72” value (individual Proband, 4320 min) was 926.46 mcg/ml.Std and 728.31 mcg/ml.Std and 1158.02 mcg/ml.Std and 964.71 mcg/ml.Std and 1466.56 mcg/ml.Std and 1252.36 mcg/ml.Std.

(Values after patent EP0278997A1, “Azapropazone rectal capsules” (SIEGFRIED AKTIENGESELLSCHAFT, priority 1987, dated 1988).)
